Values of other authors as cited in patent publication US20050163858A1 (priority 2003, published 2005).

Assays:
dopamine D2 = dopamine D2 (Homo sapiens, UniProt P14416)
serotonin 5HT1A = biological target: T1, serotonin 5HT1A (Homo sapiens, UniProt P08908)
T1 sequence (P08908 1-422): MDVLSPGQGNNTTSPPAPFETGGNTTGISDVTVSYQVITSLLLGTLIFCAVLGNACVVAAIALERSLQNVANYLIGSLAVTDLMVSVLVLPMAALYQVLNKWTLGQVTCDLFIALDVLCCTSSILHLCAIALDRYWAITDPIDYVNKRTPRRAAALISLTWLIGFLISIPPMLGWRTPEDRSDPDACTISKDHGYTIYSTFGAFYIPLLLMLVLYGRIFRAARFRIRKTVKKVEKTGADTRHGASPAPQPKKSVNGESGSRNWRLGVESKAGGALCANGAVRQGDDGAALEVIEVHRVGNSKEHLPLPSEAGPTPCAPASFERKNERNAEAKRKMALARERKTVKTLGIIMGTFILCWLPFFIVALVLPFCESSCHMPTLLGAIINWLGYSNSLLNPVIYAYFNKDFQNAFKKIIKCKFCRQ

serotonin 5HT2C = biological target: T2, serotonin 5HT2C (Homo sapiens, UniProt P28335)
T2 sequence (P28335 33-458): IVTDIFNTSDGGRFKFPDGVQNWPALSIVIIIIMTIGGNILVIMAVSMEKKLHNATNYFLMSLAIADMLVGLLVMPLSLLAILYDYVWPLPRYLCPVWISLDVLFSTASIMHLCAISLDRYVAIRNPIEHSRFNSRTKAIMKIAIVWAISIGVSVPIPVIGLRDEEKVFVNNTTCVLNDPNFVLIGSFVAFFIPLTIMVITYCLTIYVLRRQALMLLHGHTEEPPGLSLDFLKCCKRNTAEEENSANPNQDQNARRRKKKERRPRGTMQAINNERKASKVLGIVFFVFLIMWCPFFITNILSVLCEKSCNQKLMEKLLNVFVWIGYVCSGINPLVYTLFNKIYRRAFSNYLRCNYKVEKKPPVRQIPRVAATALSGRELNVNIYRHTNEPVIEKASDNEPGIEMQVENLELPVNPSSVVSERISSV

serotonin 5HT2A = serotonin 5HT2A (Homo sapiens, UniProt P28223)
serotonin 5HT2A, sequence (P28223 whole entry): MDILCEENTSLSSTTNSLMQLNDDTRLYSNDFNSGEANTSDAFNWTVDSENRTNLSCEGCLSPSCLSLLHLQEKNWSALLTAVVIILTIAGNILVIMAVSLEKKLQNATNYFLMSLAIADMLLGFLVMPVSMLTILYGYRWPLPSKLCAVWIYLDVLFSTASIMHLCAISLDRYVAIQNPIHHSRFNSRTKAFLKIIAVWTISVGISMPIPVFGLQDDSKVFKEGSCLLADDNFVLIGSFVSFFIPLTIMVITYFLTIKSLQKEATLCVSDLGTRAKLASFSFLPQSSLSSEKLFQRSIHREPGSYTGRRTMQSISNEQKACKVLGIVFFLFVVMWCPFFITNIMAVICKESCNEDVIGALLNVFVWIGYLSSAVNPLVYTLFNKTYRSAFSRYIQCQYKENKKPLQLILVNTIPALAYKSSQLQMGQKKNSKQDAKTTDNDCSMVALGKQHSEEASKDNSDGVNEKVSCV

Measured: in vitro binding affinity

dopamine D2, sequence (P14416 whole entry): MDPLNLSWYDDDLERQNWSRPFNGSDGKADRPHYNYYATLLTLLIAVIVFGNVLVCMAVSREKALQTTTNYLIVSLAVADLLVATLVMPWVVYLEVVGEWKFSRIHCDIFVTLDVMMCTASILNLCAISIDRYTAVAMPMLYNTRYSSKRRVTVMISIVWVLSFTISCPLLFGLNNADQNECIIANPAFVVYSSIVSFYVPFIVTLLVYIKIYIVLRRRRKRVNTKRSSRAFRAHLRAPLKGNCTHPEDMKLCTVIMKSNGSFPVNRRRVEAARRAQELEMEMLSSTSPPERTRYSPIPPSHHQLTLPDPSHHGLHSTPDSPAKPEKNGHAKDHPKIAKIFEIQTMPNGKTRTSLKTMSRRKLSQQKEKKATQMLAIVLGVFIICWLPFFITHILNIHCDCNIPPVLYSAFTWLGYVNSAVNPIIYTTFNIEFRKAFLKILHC

O=C1Cc2cc(CCN3CCN(c4nsc5ccccc45)CC3)c(Cl)cc2N1 [Ziprasidone, 5-[2-[4-(1,2-benzisothiazol-3-yl)-1-piperazinyl]ethyl]-6-chloro-1,3-dihydro-2H-indol-2-one]
high: α1-adrenergic receptors | dopamine D2 | serotonin 5HT1D | serotonin 5HT1A | serotonin 5HT2C | serotonin 5HT2A
